Measurements taken from the NIST ThermoML archive (doi:10.1021/je4009238).

Columns and labels:
[1] = xn = mol fraction of the nth substance listed; settings: 101 kPa, Liquid, x2 = 0
[2] = refractive index (Na D-line) (dimensionless); xn = mol fraction of the nth substance listed; settings: 101 kPa, Liquid, x2 = 0
[3] = 101 kPa, Liquid
[4] = refractive index (Na D-line) (dimensionless); settings: 101.33 kPa, Liquid

CN(C)C=O [dimethylformamide] + CCCCCCCC[n+]1ccn(C)c1.[Cl-]
Settings	mass density, [1] [kg/m3]	refractive index, [2]	viscosity, [1] [mPa·s]
288.15 K	953.79	1.43304	0.936
298.15 K	944.26	1.42858	0.825
308.15 K	934.69	1.42381	0.736
318.15 K	925.16	1.41909	0.665

CN(C)C=O [dimethylformamide]
Settings	mass density, [3] [kg/m3]	refractive index, [4]	viscosity, [3] [mPa·s]
288.15 K	953.79	1.43304	0.936
298.15 K	944.26	1.42858	0.825
308.15 K	934.69	1.42381	0.736
318.15 K	925.16	1.41909	0.665

CCCCCCCC[n+]1ccn(C)c1.[Cl-] [1-methyl-3-octylimidazolium chloride]
Settings	mass density, 288.15 K [kg/m3]	mass density, 298.15 K [kg/m3]	mass density, 308.15 K [kg/m3]	mass density, 318.15 K [kg/m3]	refractive index, 288.15 K	refractive index, 298.15 K	refractive index, 308.15 K	refractive index, 318.15 K	viscosity, 308.15 K [mPa·s]	viscosity, 318.15 K [mPa·s]
[3]	1022.06	1015.97	1009.8	1003.62	–	–	–	–	155.03	65.95
[4]	–	–	–	–	1.49008	1.48709	1.48413	1.48122	–	–
